From US12084472B2 (Ardelyx, Inc., priority 2015, dated 2024)

Target: T1, human TGR5 (Homo sapiens, UniProt Q8TDU6)
T1 construct: expressed in transfected cells; host or cells: HEK293
T1 sequence (Q8TDU6 1-330): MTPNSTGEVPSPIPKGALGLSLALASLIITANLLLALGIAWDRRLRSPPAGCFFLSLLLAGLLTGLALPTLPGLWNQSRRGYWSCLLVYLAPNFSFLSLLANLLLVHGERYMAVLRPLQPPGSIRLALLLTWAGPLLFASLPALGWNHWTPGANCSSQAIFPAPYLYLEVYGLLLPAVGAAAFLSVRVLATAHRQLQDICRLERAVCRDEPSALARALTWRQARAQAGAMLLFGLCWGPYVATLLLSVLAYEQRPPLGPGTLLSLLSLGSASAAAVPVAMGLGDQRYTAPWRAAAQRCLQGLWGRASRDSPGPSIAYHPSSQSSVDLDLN
Test: Cell-based TGR5 assay (cAMP generation, HTRF)
Conditions: HEK293 cells stably transfected with human TGR5; cAMP by HTRF; 30 minutes at 37° C.; read-out: pEC50 Human TGR5 (converted)
How it was run: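 First, compounds in 3-fold serial dilution were placed in HBSS with 10 mM HEPES pH 7.4 and 0.5 mM IBMX. Next, human TGR5-expressing HEK293 cells were added and incubated 30 min at 37° C. Finally, cAMP was detected by HTRF and pEC50 derived by logistic fitting.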

With `CC(=O)N(CCSc1ccc(Cl)c(CNC2(c3cnccc3-c3ccccc3OC3CC3)CC2)c1)C[C@H](O)[C@@H](O)[C@H](O)[C@H](O)CO` [Compound I-504, N-[2-({4-chloro-3-[({1-[4-(2-cyclopropoxyphenyl)pyridin-3-yl]cyclopropyl}amino)methyl]phenyl}sulfanyl)ethyl]-N-[(2S,3R,4R,5R)-2,3,4,5,6-pentahydroxyhexyl]acetamide] as the molecule, how does the EC50 read?
The EC50 was 126 to 1000 nM.

With `CC(C)(C)OCc1ccccc1-c1ccncc1C1(NCc2cc(Cl)ccc2Cl)CC1` [Compound I-13, 1-(4-{2-[(tert-butoxy)methyl]phenyl}pyridin-3-yl)-N-[(2,5-dichlorophenyl)methyl]cyclopropan-1-amine] as the molecule, how does the EC50 read?
The EC50 was 126 to 1000 nM.

`Cc1ccc(SCCCCC(=O)N(C)C[C@H](O)[C@@H](O)[C@H](O)[C@H](O)CO)nc1CNC1(c2cnccc2-c2ccccc2OC2CC2)CC1` [Compound I-495, 5-([6-[([1-[4-(2-Cyclopropoxyphenyl)pyridin-3-yl]cyclopropyl]amino)methyl]-5-methylpyridin-2-yl]sulfanyl)-N-methyl-N-[(2S,3R,4R,5R)-2,3,4,5,6-pentahydroxyhexyl]pentanamide] was tested. Which EC50 did it give?
Its EC50 is 126 to 1000 nM.

For `O=C(CCCCc1ccc(Cl)c(COC2(c3cnccc3-c3ccccc3OC3CC3)CC2)c1)NC[C@H](O)[C@@H](O)[C@H](O)[C@H](O)CO` (stereo in doubt) [Compound I-231, 5-[4-chloro-3-({1-[4-(2-cyclopropoxyphenyl)pyridin-3-yl]cyclopropoxy}methyl)phenyl]-N-[(2S,3R,4R,5R)-2,3,4,5,6-pentahydroxyhexyl]pentanamide], which EC50 is on record?
The EC50 was < 100 nM.

Which EC50 does the source give for `CN(C[C@H](O)[C@@H](O)[C@H](O)[C@H](O)CO)C(=O)CCCSc1ccc(Cl)c(CNC2(c3cnccc3-c3ccccc3OC3CC3)CC2)c1` [Compound I-650, 4-({4-chloro-3-[({1-[4-(2-cyclopropoxyphenyl)pyridin-3-yl]cyclopropyl}amino)methyl]phenyl}sulfanyl)-N-methyl-N-[(2S,3R,4R,5R)-2,3,4,5,6-pentahydroxyhexyl]butanamide] here?
The EC50 was < 100 nM.

How did the EC50 turn out when `CS(=O)(=O)CCN(CCCCCc1cc(Cl)c(COC2(c3cnccc3-c3ccccc3OC3CC3)CC2)cc1Cl)C(=O)[C@@H](O)[C@@H](O)[C@H](O)[C@@H](O)CO` (stereo in doubt) [Compound I-226, (2S,3S,4R,5S)-N-{5-[2,5-dichloro-4-({1-[4-(2-cyclopropoxyphenyl)pyridin-3-yl]cyclopropoxy}methyl)phenyl]pentyl}-2,3,4,5,6-pentahydroxy-N-(2-methanesulfonylethyl)hexanamide] was run?
Its EC50 is < 100 nM.

For `Cc1ccc(SCCCN(CCCS(C)(=O)=O)C(=O)[C@@H](O)[C@@H](O)[C@H](O)[C@@H](O)CO)cc1CNC1(c2cnccc2-c2ccccc2OC2CC2)CC1` [Compound I-544, (2S,3S,4R,5S)-N-[3-({3-[({1-[4-(2-cyclopropoxyphenyl)pyridin-3-yl]cyclopropyl}amino)methyl]-4-methylphenyl}sulfanyl)propyl]-2,3,4,5,6-pentahydroxy-N-(3-methanesulfonylpropyl) hexanamide], which EC50 is on record?
Its EC50 is 126 to 1000 nM.

With `COc1ccc2c(n1)CCN(S(=O)(=O)c1ccc(Cl)c(COC3(c4cnccc4-c4ccccc4OC4CC4)CC3)c1)C2` [Compound I-733, 6-[[4-chloro-3-([1-[4-(2-cyclopropoxyphenyl)pyridin-3-yl]cyclopropoxy]methyl)benzene]sulfonyl]-2-methoxy-5,6,7,8-tetrahydro-1,6-naphthyridine] as the molecule, how does the EC50 read?
The EC50 was < 100 nM.

For `COc1cc(C)ccc1-c1ccncc1C1(OCc2cc(Cl)ccc2Cl)CC1` [Compound I-774, 3-(1-((2,5-dichlorobenzyl)oxy)cyclopropyl)-4-(2-methoxy-4-methylphenyl)pyridine], which EC50 is on record?
The EC50 was 126 to 1000 nM.

For `O=C([C@@H](O)[C@@H](O)[C@H](O)[C@@H](O)CO)N(CCCCSc1ccc(Cl)c(COC2(c3cnccc3-c3ccccc3OC3CC3)CC2)c1)CC1CCOCC1` [Compound I-516, (2S,3S,4R,5S)-N-(4-{[4-chloro-3-({1-[4-(2-cyclopropoxyphenyl)pyridin-3-yl]cyclopropoxy}methyl)phenyl]sulfanyl}butyl)-2,3,4,5,6-pentahydroxy-N-(oxan-4-ylmethyl)hexanamide], which EC50 is on record?
The EC50 was < 100 nM.

Which EC50 does the source give for `Cc1ccc(C(C)CCCC(=O)N(CCO)C[C@H](O)[C@@H](O)[C@H](O)[C@H](O)CO)cc1COC1(c2cnccc2-c2ccccc2OC2CC2)CC1` (stereo partly drawn) [Compound I-376, 5-[3-({1-[4-(2-cyclopropoxyphenyl)pyridin-3-yl]cyclopropoxy}methyl)-4-methylphenyl]-N-(2-hydroxyethyl)-N-[(2S,3R,4R,5R)-2,3,4,5,6-pentahydroxyhexyl]hexanamide] here?
Its EC50 is < 100 nM.

How did the EC50 turn out when `CN(CCCCCc1cc(Cl)c(COC2(c3cnccc3-c3ccccc3OC3CC3)CC2)cc1Cl)C(=O)[C@@H](O)[C@@H](O)[C@H](O)[C@@H](O)CO` (stereo in doubt) [Compound I-228, (2S,3S,4R,5S)-N-{5-[2,5-dichloro-4-({1-[4-(2-cyclopropoxyphenyl)pyridin-3-yl]cyclopropoxy}methyl)phenyl]pentyl}-2,3,4,5,6-pentahydroxy-N-methylhexanamide] was run?
The EC50 was < 100 nM.

For `CC(CCCC(=O)N(CCC(N)=O)C[C@H](O)[C@@H](O)[C@H](O)[C@H](O)CO)c1ccc(Cl)c(CNC2(c3cnccc3-c3ccccc3OC3CC3)CC2)c1` (stereo partly drawn) [Compound I-335, N-(2-carbamoylethyl)-5-{4-chloro-3-[({1-[4-(2-cyclopropoxyphenyl)pyridin-3-yl]cyclopropyl}amino)methyl]phenyl}-N-[(2S,3R,4R,5R)-2,3,4,5,6-pentahydroxyhexyl]hexanamide], which EC50 is on record?
The EC50 was 126 to 1000 nM.

How did the EC50 turn out when `CN(CCCCNC(=O)NC[C@H](O)[C@@H](O)[C@H](O)[C@H](O)CO)S(=O)(=O)c1ccc(C(F)(F)F)c(CNC2(c3cnccc3-c3ccccc3OC3CC3)CC2)c1` [Compound I-468, 1-(4-{N-methyl3-[({11-[4-(2-cyclopropoxyphenyl)pyridin-3-yl]cyclopropyl}amino)methyl]-4-(trifluoromethyl)benzenesulfonamido}butyl)-3-[(2S,3R,4R,5R)-2,3,4,5,6-pentahydroxyhexyl]urea] was run?
The EC50 was 126 to 1000 nM.

How did the EC50 turn out when `Cc1ccc(SCCCN(CCCS(C)(=O)=O)C(=O)[C@@H](O)[C@@H](O)[C@H](O)[C@@H](O)CO)cc1COC1(c2cnccc2-c2ccccc2OC2CC2)CC1` [Compound I-537, (2S,3S,4R,5S)-N-(3-{[3-({1-[4-(2-cyclopropoxyphenyl)pyridin-3-yl]cyclopropoxy}methyl)-4-methylphenyl]sulfanyl}propyl)-2,3,4,5,6-pentahydroxy-N-(3-methanesulfonylpropyl) hexanamide] was run?
The EC50 was 126 to 1000 nM.

With `Cc1ccc(Cl)cc1CNC1(c2cnccc2-c2ccccc2OC2CC2)CC1` [Compound I-40, N-[(5-chloro-2-methylphenyl)methyl]-1-[4-(2-cyclopropoxyphenyl)pyridin-3-yl]cyclopropan-1-amine] as the molecule, how does the EC50 read?
The EC50 was < 100 nM.

How did the EC50 turn out when `O=C(CCCCc1cc(Cl)c(COC2(c3cnccc3-c3ccccc3OC3CC3)CC2)cc1Cl)N1CCN(C[C@H](O)[C@@H](O)[C@H](O[C@@H]2O[C@H](CO)[C@H](O)[C@H](O)[C@H]2O)[C@H](O)CO)CC1` [Compound I-103, 5-[2,5-dichloro-4-({1-[4-(2-cyclopropoxyphenyl)pyridin-3-yl]cyclopropoxy}methyl)phenyl]-1-{4-[(2S,3R,4R,5R)-2,3,5,6-tetrahydroxy-4-{[(2S,3R,4S,5R,6R)-3,4,5-trihydroxy-6-(hydroxymethyl)oxan-2-yl]oxy}hexyl]piperazin-1-yl}pentan-1-one] was run?
The EC50 was < 100 nM.

`CN(C[C@H](O)[C@@H](O)[C@H](O)[C@H](O)CO)C(=O)CCCCc1cc(Cl)c(COC2(c3cnccc3-c3ccccc3OC3CC3)CC2)cc1Cl` [Compound I-136, 5-[2,5-dichloro-4-({1-[4-(2-cyclopropoxyphenyl)pyridin-3-yl]cyclopropoxy}methyl)phenyl]-N-methyl-N-[(2S,3R,4R,5R)-2,3,4,5,6-pentahydroxyhexyl]pentanamide] was tested. Which EC50 did it give?
Its EC50 is < 100 nM.

Which EC50 does the source give for `O=C(NC[C@H](O)[C@@H](O)[C@H](O)[C@H](O)CO)NC1CCC(CCNS(=O)(=O)c2ccc(Cl)c(COC3(c4cnccc4-c4ccccc4OC4CC4)CC3)c2)CC1` (stereo partly drawn) [Compound I-422, 1-(4-{2-[4-chloro-3-({1-[4-(2-cyclopropoxyphenyl)pyridin-3-yl]cyclopropoxy}methyl)benzenesulfonamido]ethyl}cyclohexyl)-3-[(2S,3R,4R,5R)-2,3,4,5,6-pentahydroxyhexyl]urea] here?
The EC50 was < 100 nM.

How did the EC50 turn out when `Cc1ccc(C(C)CCCNC(=O)[C@@H](O)[C@@H](O)[C@H](O)[C@@H](O)CO)cc1CNC1(c2cnccc2-c2ccccc2OC2CC2)CC1` (stereo partly drawn) [Compound I-299, (2S,3S,4R,5S)-N-(4-{3-[({1-[4-(2-cyclopropoxyphenyl)pyridin-3-yl]cyclopropyl}amino)methyl]-4-methylphenyl}pentyl)-2,3,4,5,6-pentahydroxyhexanamide] was run?
The EC50 was < 100 nM.

Which EC50 does the source give for `CN(CCCSc1ccc(Cl)c(CNC2(c3cnccc3-c3ccccc3OC3CC3)CC2)c1)C(=O)[C@@H](O)[C@@H](O)[C@H](O)[C@@H](O)CO` [Compound I-511, (2S,3S,4R,5S)-N-[3-({4-chloro-3-[({1-[4-(2-cyclopropoxyphenyl)pyridin-3-yl]cyclopropyl}amino)methyl]phenyl}sulfanyl)propyl]-2,3,4,5,6-pentahydroxy-N-methylhexanamide] here?
Its EC50 is < 100 nM.
